In US20220249596A1, “PIC1 PEPTIDE COMPOSITIONS AND METHODS OF USE THEREOF FOR TREATMENT OF HYPOXIC ISCHEMIC ENCEPHALOPATHY” (REALTA HOLDINGS, LLC, priority 2019, published 2022):
No end group written: not given here.

Legend:
Assay type in all cases: in vivo, rat
[1] = system: C3a; experiment: Systemic C3a level in plasma, ELISA; conditions: 8, 12 and 24 hours after initial insult, P<0.05
Protocol: Systemic C1q and C5a levels were measured as follows. 100 μl of 1:5 plasma in 1×PBS was added to the wells of a plate described above and incubated overnight at 4° C. The plates were washed 3 times with PBST and blocked with NDS or NGS for one hour. Samples were probed with either 1:50 goat anti-human C1q (Complement Technology) in NDS or 1:200 mouse anti-human C5a (Human Complement Component C5a DuoSet ELISA, R&D Systems, Inc., Minneapolis, Minn.) in NGS for one hour at RT. The wells were washed and 1:500 donkey anti-goat 488 (Life Technologies) in NDS or 1:500 goat anti-mouse AF 568 (Life Technologies) in NGS was added, and incubated for one hour at RT. The wells were washed and the plate read using a Synergy HT (BioTek). Systemic C3a levels in plasma (1:20 dilution) were measured using a standard ELISA, according to the manufacturer's instructions (Rat C3a ELISA Kit, TSZ ELISA, Waltham, Mass.).

[2] = system: C5aR; experiment: Whole brain C5aR expression, Western blotting and immunofluorescence; conditions: NT versus PIC1-treated groups
Protocol: After blocking for one hour at room temperature, tissues were incubated with 1:300 goat anti-Iba1 (Abcam), 1:250 goat anti-GFAP (Abcam), 1:500 chicken anti-NeuN (Millipore, Billerica, Mass.), or 1:100 mouse anti-NeuN (Millipore) in host appropriate blocking serum overnight at 4° C. Primary antibodies were probed with 1:500 donkey anti-goat (Abcam), goat anti-chicken (Abcam), or goat anti-mouse (Abcam) AF 488 or 568 in appropriate blocking serum for one hour at room temperature. Tissues were blocked a second time with NGS for one hour at room temperature. Samples were then probed with 1:300 mouse anti-C1q (Abcam), 1:300 rabbit anti-C9, 1:50 rabbit anti-MPO (Abcam), 1:200 rabbit anti-TMEM (Novus Bio, Centennial, Colo.), 1:100 rabbit anti-C3aR (Bioss), 1:100 Mouse anti-C5aR (Hycult), or 1:200 chicken anti-C3/C3a (Abcam) in NGS overnight at 4° C. and then with 1:500 goat anti-mouse, rabbit, or chicken (Abcam) AF 488 or 568 in NGS for one hour at room temperature.
Without wishing to be bound by theory, C3a is generated at the convergence of all known complement activation pathways (i.e., the classical, alternate and lectin pathways). To investigate further, C3aR levels in the brain were measured by Western blotting and immunofluorescence (FIG. 5). Western blotting was performed as follows. […]

[3] = system: C1q; experiment: CNS C1q level in whole cell brain lysate, fluorescent immunoassay; conditions: 8, 12 and 24 hours after initial insult, P<0.05
Protocol: The local and systemic effects of NT, HT and PIC1 treatment on the complement cascade were measured. CNS C1q levels and systemic C1q and C5a levels were measured using a fluorescent immunoassay.
CNS C1q levels were measured as follows. 150 μg of whole cell brain lysate in 1× PBS was added to the wells of a Costar high binding, black flat bottom 96-well polystyrene microplate (Corning, Steuben County, NY) and incubated overnight at 4° C. The plates were washed 3 times with 1× PBS-0.1% Tween 20 (PBST) and blocked with 10% normal donkey serum (NDS) for one hour. A 1:50 dilution of goat anti-human C1q (Complement Technology, Inc., Tyler, Tex.) in NDS was added into the wells and incubated for one hour at room temperature (RT). After washing, a 1:500 dilution of donkey anti-goat Alexa Fluor (AF) 488 (Life Technologies, Grand Island, N.Y.) in NDS was added, and incubated for one hour at RT. Wells were then washed and blocked with 10% normal goat serum (NGS) for one hour at RT. A 1:250 dilution of mouse anti-GAPDG (Abcam, Cambridge, UK) in NGS was added into the wells and incubated for one hour at RT. Wells were washed and a 1:500 dilution of goat anti-mouse AF 568 (Life Technologies, Grand Island, N.Y.) in NGS was added to incubate for one hour at RT. The wells were washed and the plate read using a Synergy HT (BioTek, Winooski, Vt.).

[4] = system: C9; experiment: Immunofluorescence quantification of C9 in brain; conditions: ipsilateral cortex and hippocampus, 48 hours, versus NT, P<0.05
Protocol: TUNEL/C1q staining was performed as follows. Five (5) μm paraffin-embedded coronal brain sections on slides were incubated (1 hour; 60° C.), deparaffinized with xylene, and rehydrated with ethanol (100%, 95%, 70%; RT). Endogenous peroxidase activity was blocked (0.3% H2O2/MeOH; 10 minutes; RT), and heat induced antigen retrieval was performed (when indicated) using 10 mM sodium citrate, pH 6.0. 10% normal serum (from the same species as the host of the secondary antibody) was used to block and to dilute antibodies. Samples were washed twice for 10 min each, in PBST between each step.
After blocking for one hour at room temperature, tissues were incubated with 1:300 goat anti-Iba1 (Abcam), 1:250 goat anti-GFAP (Abcam), 1:500 chicken anti-NeuN (Millipore, Billerica, Mass.), or 1:100 mouse anti-NeuN (Millipore) in host appropriate blocking serum overnight at 4° C. Primary antibodies were probed with 1:500 donkey anti-goat (Abcam), goat anti-chicken (Abcam), or goat anti-mouse (Abcam) AF 488 or 568 in appropriate blocking serum for one hour at room temperature. Tissues were blocked a second time with NGS for one hour at room temperature. […]

“IALILEPICCQERAA-dPEG24 (cysteine pairing not given here) [PIC1]” was tested, and the “C3a levels in plasma, NT animals relative to PIC1-treated animals” value [1] was “significantly higher”, the “expression of C5aR” value [2] was “no significant differences” and the “whole brain C1q levels, NT animals relative to PIC1-treated animals” value [3] was “significantly higher”. For the same substance, the C9 expression [4] was “decreased expression”.
